Here are results for 1 compound from BindingDB's records for doi:10.1021/jm800930w (Kyoto University, 2008).

The assay concerns the target KiSS-1 receptor (Homo sapiens, UniProt Q969F8). As to the kind of experiment: Receptor Binding Assay. The settings on record: pH 7.3; 25 °C.

Sequence of KiSS-1 receptor (Q969F8 whole entry): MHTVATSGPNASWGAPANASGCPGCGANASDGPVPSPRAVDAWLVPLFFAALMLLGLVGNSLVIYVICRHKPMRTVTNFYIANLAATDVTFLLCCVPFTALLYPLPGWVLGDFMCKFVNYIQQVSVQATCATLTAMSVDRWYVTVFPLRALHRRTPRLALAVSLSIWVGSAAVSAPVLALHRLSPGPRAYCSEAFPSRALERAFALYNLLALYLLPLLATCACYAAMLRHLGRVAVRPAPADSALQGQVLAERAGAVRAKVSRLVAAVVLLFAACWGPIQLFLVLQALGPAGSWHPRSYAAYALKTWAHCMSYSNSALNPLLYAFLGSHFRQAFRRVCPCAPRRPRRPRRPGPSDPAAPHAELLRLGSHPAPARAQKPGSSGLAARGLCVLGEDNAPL

`CC(C)C[C@H](NC(=O)CNC(=O)[C@H](Cc1ccccc1)NC(=O)[C@H](CO)NC(=O)[C@H](CC(N)=O)NC(=O)[C@H](Cc1c[nH]c2ccccc12)NC(=O)[C@H](CC(N)=O)NC(=O)[C@@H](N)Cc1ccc(O)cc1)C(=O)N[C@@H](CCCNC(=N)N)C(=O)N[C@@H](Cc1ccccc1)C(N)=O` [(2S)-2-[(2S)-2-[(2S)-2-[(2S)-2-amino-3-(4-hydroxyphenyl)propanamido]butanediamido]-3-(1H-indol-3-yl)propanamido]-N-[(1S)-1-{[(1S)-1-[({[(1S)-1-{[(1S)-4-carbamimidamido-1-{[(1S)-1-carbamoyl-2-phenylethyl]carbamoyl}butyl]carbamoyl}-3-methylbutyl]carbamoyl}methyl)carbamoyl]-2-phenylethyl]carbamoyl}-2-hydroxyethyl]butanediamide]: the IC50 (in general, the concentration that inhibits the measured activity by half) was 0.12 nM.
